According to PubChem BioAssay AID1645868 (Buhrlage Lab, Dana-Farber Cancer Institute and Novartis …, 2021):
Active and inactive are the calls of the source.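 The calls were made as follows: active = maximal percent inhibition of the deubiquitinase OTUD3 of at least 30% across the tested doses; inactive = the rest.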

Molecular target: OTU domain-containing protein 3 (Homo sapiens) (UniProt Q5T2D3)
Experiment: Validation of screening hits, potency titration, in vitro enzymatic, OTU domain-containing protein 3 DUB inhibitors (AID 1645868)
Settings: purified OTUD3, ubiquitin-rhodamine cleavage fluorescence, 2 h

Chain of OTU domain-containing protein 3 (Homo sapiens) (Q5T2D3 whole entry, looked up, the tested form may be a part): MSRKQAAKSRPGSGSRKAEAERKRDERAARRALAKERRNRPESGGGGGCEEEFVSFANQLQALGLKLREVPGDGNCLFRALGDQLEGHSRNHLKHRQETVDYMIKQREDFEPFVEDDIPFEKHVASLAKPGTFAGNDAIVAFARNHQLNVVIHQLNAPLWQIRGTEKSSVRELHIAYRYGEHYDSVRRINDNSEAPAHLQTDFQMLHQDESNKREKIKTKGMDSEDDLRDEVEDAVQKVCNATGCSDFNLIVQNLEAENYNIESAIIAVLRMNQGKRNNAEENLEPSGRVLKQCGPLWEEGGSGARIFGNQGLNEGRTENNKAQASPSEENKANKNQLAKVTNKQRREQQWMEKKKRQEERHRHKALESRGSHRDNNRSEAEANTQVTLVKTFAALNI

IC50	Compound
> 50 µM (inactive)	COc1cccc(CCNC(=O)CCn2c(=O)c(C)nc3cc(C)c(C)cc32)c1
4.98 µM	O=C(Cn1cc(C(=O)C(F)(F)F)c2ccccc21)N1CCc2ccccc21
> 50 µM (inactive)	Cc1ccccc1Cn1ccc2ccn(Cc3cccnc3)c2c1=O
> 50 µM (inactive)	CN1CCN(C(=O)c2ccn(-c3ccc4ccc(-c5cnn(C)c5)cn34)n2)CC1
23.4 µM	CCCCc1ccc(-c2cc(C(=O)NCCN3CCOCC3)c3cc(Br)ccc3n2)cc1
> 50 µM (inactive)	Cc1cc(Cl)ccc1Nc1nc(Nc2cccc(F)c2)nc2nccnc12
> 50 µM (inactive)	CCN(CC)c1nc(F)c2c(c1F)S(=O)(=O)CCN2Cc1cccnc1
> 50 µM (inactive)	Cc1ccc2nc(-c3cccc(-c4nc5ccc(C)cc5[nH]4)n3)[nH]c2c1
> 50 µM (inactive)	Cc1cc(C(=O)CN2CCN(Cc3ccc4c(c3)OCO4)CC2)c(C)n1-c1ccc2c(c1)OCO2
1.51 µM	COc1cccc2cc(C(=O)Nc3nc(-c4ccncc4)cs3)oc12
33.9 µM	Cc1cc(=O)c2c(O)oc(O)c3c(O)cc(=O)c1c32
30.9 µM	O=C(CCc1c[nH]c2ccccc12)Nc1ccc(N2CCOCC2)cc1
> 50 µM (inactive)	Cc1ccc2[nH]c(=O)c(CN(Cc3cccnc3)C(=O)c3cccc(Cl)c3)cc2c1
31 µM	Cc1ccc(NC(=O)Cn2c(Nc3cccc(C)c3)nc(C)cc2=O)cc1
13.8 µM	COc1ccc(CNC(=O)Nc2cccc3ccccc23)cc1
> 50 µM (inactive)	Cc1ccc2nc(CCc3ccc(NS(=O)(=O)c4cccc(Cl)c4C)cc3)[nH]c2c1
32.4 µM	CCOc1ccccc1C(=O)Oc1ccc2c(C)cc(=O)oc2c1
> 50 µM (inactive)	CCCc1nc2sc3c(NCCCN4CCOCC4)ncnc3c2c2c1CCC2
12.1 µM	O=C(Cn1c(=O)n(CC(=O)NC2CCCC2)c(=O)c2ccccc21)Nc1cc(Cl)ccc1Cl
29.2 µM	CCOc1ccc2[nH]c(=O)c(CN(C(=O)c3cccs3)C3CCCC3)cc2c1
10.5 µM	COc1ccc(-c2cc(-c3ccccc3)nc(SCC(N)=O)c2C#N)cc1OC
> 50 µM (inactive)	O=c1sc2ccccc2c(=O)n1Cc1cccc(C(F)(F)F)c1
> 50 µM (inactive)	COc1ccc2nc3c(cc2c1)c(=O)n(C)c1c3c(=O)n(-c2ccccc2)c(=O)n1-c1ccccc1

IC50	Compound
1.92 µM	CCc1nc(SCC(=O)Nc2ccccc2Cl)c2oc3ccccc3c2n1
25.5 µM	O=C1C=C(O)c2c(O)cccc2C1=O
> 50 µM (inactive)	COc1ccc(-c2cc(-c3nnc(CSc4nc5ccccc5n4C)o3)c3ccccc3n2)cc1OC
> 50 µM (inactive)	C/C1=C\CCC(C)C(O)CC(O)C(C)C(O)CCC(C)C(O)CC2(O)OC(CC(OC(=O)CC(=O)O)CC(O)CC(O)CC(O)C(C)C(O)/C=C/C(C)C(C(C)CCCCCCCCN=C(N)N)OC1=O)CC(O)C2O (stereo unspecified)
> 50 µM (inactive)	COc1ccccc1OCc1ccc(C(=O)Nc2ccc(F)cc2C)cc1
31.7 µM	CC(C)NC(=O)CN1C(=O)CC(C)Sc2ccc(S(=O)(=O)N3CCCCC3)cc21 (stereo unspecified)
> 50 µM (inactive)	Nc1nc(-c2ccc[nH]2)cs1
11.6 µM	CCOc1ccc(NC(=O)Cn2c(=O)n(CCC(=O)NCc3ccco3)c(=O)c3ccccc32)cc1
30.2 µM	Cc1ccc(NC(=O)CSc2nc3c(cc2C#N)C(=O)CCC3)cc1
> 50 µM (inactive)	O=C(NC1CC1)c1ccnn1-c1ccc2ccc(-c3ccncc3)cn12
> 50 µM (inactive)	CC(C)(C)C(=O)NC(c1ccccc1)c1nnc(N2CCOCC2)o1 (stereo unspecified)
> 50 µM (inactive)	O=S1(=O)CCN(CC2CCCO2)c2c(Oc3ccccc3)nc(F)c(Cl)c21 (stereo unspecified)
> 50 µM (inactive)	O=C(COc1ccc(Cl)cc1)N1CCc2cc3ccccc3nc21
> 50 µM (inactive)	O=C(CNC(=O)c1cc2ccccc2[nH]1)Nc1ccc2c(c1)OCCO2
> 50 µM (inactive)	Cc1ccc(S(=O)(=O)NCC(=O)OC(C(=O)Nc2cc(C)ccc2C)c2ccccc2)cc1 (stereo unspecified)
35.9 µM	COc1cccc(NC(=O)CSc2nnc(-c3cc4cccc(OC)c4o3)n2C)c1
30.7 µM	CSc1ccc(CNC(=O)CC2CCN(S(=O)(=O)c3ccc(C)cc3)CC2)cc1
> 50 µM (inactive)	CCC(=O)Nc1ccc2c(c1)nc(CSc1nccc(C)n1)n2CC
> 50 µM (inactive)	Cc1nnc(-c2nnc(NCc3ccc(Cl)cc3)c3ccccc23)o1
> 50 µM (inactive)	CSc1cccc(NC(=O)CCc2ccc3nc(NC(C)=O)sc3c2)c1
> 50 µM (inactive)	c1coc(CNc2nc3ccccc3n3nnnc23)c1
> 50 µM (inactive)	O=C(Cc1cccnc1)Nc1ccc(N2CCN(C3CCCCC3)C2=O)nc1
> 50 µM (inactive)	O=C(NC(Cc1ccccc1)c1nc2ccccc2[nH]1)C1CC1 (stereo unspecified)

IC50	Compound
> 50 µM (inactive)	FC(F)(F)c1cccc(N2CCN(c3nc4ccccc4n4nnnc34)CC2)c1
42 µM	O=C(CNc1nc(Nc2ccccc2F)nc(Nc2ccccc2F)n1)Nc1ccccc1
> 50 µM (inactive)	CCOc1ccc2cc3c(nc2c1)OC(=O)N(Cc1ccc(C)o1)C3
37.2 µM	CC(=O)c1ccc(NC(=O)CC2C(=O)Nc3nc4ccccc4n32)cc1 (stereo unspecified)
> 50 µM (inactive)	O=C(Cn1ncc2c(N3CCCCCC3)ncnc21)NCc1ccccc1
> 50 µM (inactive)	COc1ccc(/C=C/C(=O)N2CCc3ccccc32)cc1S(=O)(=O)N1CCOCC1
29.7 µM	Cc1ccccc1NC(=O)c1cc(S(=O)(=O)N2CCCCCC2)ccc1Cl
> 50 µM (inactive)	c1cnc(-c2n[nH]c(C3CCN(C4CCNC4)CC3)n2)cn1 (stereo unspecified)
> 50 µM (inactive)	CC1=C(c2ccc(Cl)cc2)S(=O)(=O)NC1=NCC(=O)Nc1ccc(F)cc1
> 50 µM (inactive)	COc1ccc(C(C)NC(=O)c2cnc(-c3ccccc3)nc2-c2ccncc2)cc1 (stereo unspecified)
> 50 µM (inactive)	O=C(COc1ccc(S(=O)(=O)N2CCOCC2)cc1)N1CCC(Cc2ccccc2)CC1
> 50 µM (inactive)	Cc1ccccc1NC(=O)c1ccc(N2CCCCC2)nn1
19.8 µM	Cc1ccc(Cn2cc(-c3noc(-c4ccc[nH]4)n3)nn2)cc1
49.8 µM	CCc1ccc(NC(=O)COC(=O)c2n[nH]c3ccccc23)cc1
> 50 µM (inactive)	O=C(OCc1ccc(F)cc1)c1ccc2ccccc2n1
> 50 µM (inactive)	Cc1ccc2c(c1C)NC(=O)[C@]21[C@@H]2C(=O)N(c3cccc(Cl)c3)C(=O)[C@@H]2[C@@H]2CCCN21
> 50 µM (inactive)	CN(C)CCc1cc2c(c3c1ccc1ccccc13)OCO2
> 50 µM (inactive)	CCOc1ccc(CCNC(=O)c2cccc3c2C(=O)N(CCOC)C3)cc1OCC
28.8 µM	CCn1c(COc2cccc(C(F)(F)F)c2)nnc1SCc1ccc(Cl)cc1
> 50 µM (inactive)	O=C(c1nnn(Cc2ccc(Cl)cc2)c1-n1cccc1)N1CCCC1
> 50 µM (inactive)	CCOc1cccc2sc(N(Cc3cccnc3)C(=O)CCc3ccccc3)nc12
2.78 µM	CCOc1ccccc1NC(=O)Cn1c(=O)n(CCCC(=O)NCc2ccc(C)cc2)c(=O)c2sccc21
> 50 µM (inactive)	CCOc1cc(N2CCOCC2)c(OCC)cc1NC(=O)c1cc(-c2ccncc2)nc2ccccc12

IC50	Compound
> 50 µM (inactive)	CCc1nc(N2CCCC2=O)sc1C(=O)Nc1cccc(C(C)=O)c1
> 50 µM (inactive)	Cc1cc(CSc2ncccc2C(=O)Nc2ccnn2Cc2cccnc2)no1
> 50 µM (inactive)	Nc1ccccc1SC(CC(=O)c1ccc(Cl)cc1)c1ccsc1 (stereo unspecified)
> 50 µM (inactive)	Cc1cccc(N2CCN(C(=O)c3nnn(-c4ccc(F)cc4)n3)CC2)c1
35.3 µM	Cc1ccc(C(=O)NCC(=O)Nc2nc3ccccc3[nH]2)c(C)c1
> 50 µM (inactive)	COc1ccc(C(=O)Nc2cc(-c3ccccn3)no2)cn1
> 50 µM (inactive)	O=C(Nc1cc(F)c2nc(N3CCCC3)ccc2c1)c1ccco1
> 50 µM (inactive)	O=C(/C=C/c1ccc(F)cc1)N1CCc2ccccc2C1
> 50 µM (inactive)	CN1C(=O)COc2ccc(NC(=O)c3cc(-c4ccccc4)on3)cc21
> 50 µM (inactive)	O=S1(=O)CCN(Cc2c(F)cccc2F)c2c(F)nc(N3CCOCC3)c(F)c21
> 50 µM (inactive)	COC(=O)c1cc2c(ccn2C)n1CC(=O)NC1CCCC1
> 50 µM (inactive)	O=C(OCc1ccc(Br)cc1)c1ccc2ccccc2n1
> 50 µM (inactive)	CS(=O)(=O)N1CCCN(c2nc3cc(Cl)ccc3n3cccc23)CC1
> 50 µM (inactive)	O=c1c(NCCCN2CCCC2)nc2ccncc2n1Cc1ccccc1
> 50 µM (inactive)	Fc1ccc(-c2noc(-c3nnc(NCc4cccnc4)c4ccccc34)n2)cc1
> 50 µM (inactive)	Cc1cccc(NC(=O)Cn2c(-c3cnccn3)nc(C)c(C)c2=O)c1C
> 50 µM (inactive)	COc1cccc(-c2cc(=O)[nH]c(Nc3nc(C)c4ccccc4n3)n2)c1
> 50 µM (inactive)	O=C(Nc1cccc(Cl)c1)N1CCC(c2cc(-c3ccco3)n[nH]2)CC1
> 50 µM (inactive)	Cn1c(=O)c(C(=O)CN2CCN(c3ccc(O)cc3)CC2)c(N)n(Cc2ccccc2)c1=O
> 50 µM (inactive)	Cc1ccc(Cn2nnc(-c3noc(-c4ccc[nH]4)n3)c2C)cc1
23.3 µM	Cc1cc(=O)n(CC(=O)Nc2ccccc2C)c(Nc2ccc(F)cc2)n1
> 50 µM (inactive)	Cc1ccc(C(=O)Nc2ccc3c(c2)C(=O)N(C)c2ccccc2O3)cc1C

Compound	IC50
CC1Oc2cc3c(-c4c(O)cc(O)c5c(O)c6c(cc45)OC(C)C(C)C6=O)c(O)cc(O)c3c(O)c2C(=O)C1C (stereo unspecified)	2.47 µM
Cc1cc(C)nc(-n2nc(C)c3c2NC(=O)CSC3c2ccc(F)cc2F)n1 (stereo unspecified)	47.2 µM
CC1(C)CC(n2[nH]c(=O)c3c2NC(=O)CSC3c2ccc(OCc3ccccc3)cc2)CCO1 (stereo unspecified)	22.4 µM
CC[C@@]1(O)C[C@H](OC2CC(N(C)C)C(OC3CC(O)C(OC4CCC(=O)C(C)O4)C(C)O3)C(C)O2)c2c(cc3c(c2O)C(=O)c2c(O)ccc(O)c2C3=O)[C@H]1C(=O)OC (stereo partly specified)	> 5 µM (inactive)
CN1C(=O)[C@@]23C[C@]4([C@@]56C[C@]78SS[C@](CO)(C(=O)N7[C@@H]5Nc5ccccc56)N(C)C8=O)c5ccccc5N[C@@H]4N2C(=O)[C@]1(CO)SS3	> 50 µM (inactive)
